Article PMC8307506, “Identification of Dihydromyricetin and Metabolites in Serum and Brain Associated with Acute Anti-Ethanol Intoxicating Effects in Mice” (International Journal of Molecular Sciences, 2021)

Tests used:
[1] = Quantification of DHM in brain samples; format: in vivo, mice; settings: for Brain Concentration 15 min post DHM: mean ± SEM
Procedure: Eight-week-old male and female C57BL/6J mice (Jackson’s Laboratories, Bar Harbor, ME, USA) were housed 4 mice to a cage (separated by sex) and maintained on 12-h light, 12-h dark cycles (lights on at 0700 h) in the animal facility at the Department of Animal Sciences, Rutgers University. Following 1-week acclimation, animals were given ad libitum access to water and a polyphenol-free diet (PFD; 3.82 kcal/g, 10% fat, 20% protein, 70% carbohydrate; D12450H; Research Diets, Inc., New Brunswick, NJ, USA) for at least 10 days. For PK studies, after an overnight fast, mice were administered 50 mg/kg DHM (dissolved in 0.9% saline with 10% DMSO) by either IP injection or oral gavage. Oral gavage was performed using single-use, sterile plastic feeding tubes for mice (20 ga × 30 mm; cat# FTP-20-30, Instech Laboratories, (Plymouth Meeting, PA, USA). Mice were deeply anesthetized with 5% isoflurane mixed with oxygen, and blood was collected by cardiac puncture. Following cardiac puncture, animals were exsanguinated and transcardial perfusion with 0.9% saline was performed to ensure blood removal from the brain tissue. Blood and brain samples were collected from a total of 85 mice at 0.25, 0.75, 1.5, 3, 6, 12, 24 h (3–4 mice for each sex and timepoint). Tissues were immediately homogenized with 0.2% formic acid at 1:2 (w/v), and frozen at −80 °C until analysis. Blood was centrifuged at 3000× g for 10 min at 4 °C to isolate serum. For efficacy studies, mice (n = 8/sex) were fasted at 5 h prior to Ethanol gavage 5 g/kg (37% Ethanol in water). DHM 50 mg/kg IP (dissolved in 0.9% saline with 10% DMSO) was administered at 0, 15, 45, 90 and 180 min prior to Ethanol oral gavage. Each mouse was tested at each time point 7 days apart over 6-week period. At the time of Ethanol gavage, mice were placed in oversized conical holders (L: 152 mm X W: 37 mm) and observed for ability to return upright upon being placed in a supine position. Duration of LORR was determined by ability to return upright 3 times within 30 s. To determine whether ethanol-induced tolerance developed, one week (Week 1; Baseline) prior to the 6-week repeated DHM dosing study all mice were oral dose with ethanol (5 g/kg) without any IP injection and LORR was measured. Mice were then re-tested in a similar fashion with oral ethanol 1 week after the DHM 6-week period (Week 8; Post). […] All animal studies were approved by the Institutional Animal Care and Use Committee of Rutgers University (Bello; PROTO999900014, OLAW #A3262-01, 15 March 2017) and complied with NIH Guide for the Care and Use of Laboratory Animals.
Whole brain samples were homogenized in FA. All brain homogenates were stored at −80 °C and conditioned to room temperature prior to analysis. An aliquot of 300 µL of brain homogenate was added to 50 µL IS solution (417 ng/mL in EtOAc) and 500 µL of EtOAc in an Eppendorf tube. Samples were then vortexed for 30 s and sonicated for 1 min. Samples were centrifuged for 2 min at 3000× g and the supernatant transferred to a glass vial with 10 µL of 2% ascorbic acid in methanol. Samples were extracted two more times with 500 µL EtOAc and the supernatant transferred to the corresponding vial and dried under vacuum. Each sample was then reconstituted with 100 µL of 45% MeOH with 0.1% FA, centrifuged, and aliquoted into an HPLC vial for analysis.
An Agilent 1290 Infinity II UPLC system interfaced with an Agilent 6470 Triple Quadrupole Mass Spectrometer with an electrospray ionization source (Agilent Technology, Palo Alto, CA, USA) was used for sample analysis. An Waters Acquity UPLC BEH C8 column (2.1 × 150 mm, 1.7 μm) (Milford, MA, USA) column with a VanGuard Acquity C8 guard column (2.1 × 5 mm, 1.7 μm) (Milford, MA, USA) was used for chromatographic separation. The binary mobile phases consisted of water with 0.1% FA (phase A) and acetonitrile (ACN) with 0.1% formic acid (phase B). The flow rate was set at 0.450 mL/min. […]

[2] = design: method as in PMID 27951743; settings: rats; cited from earlier work
[3] = design: method as in PMID 29969512; settings: cited from earlier work
[4] = design: method as in PMID 28114854; settings: cited from earlier work

Concentration in brain tissue ([1]; 15 min post DHM 50 mg/kg PO or IP, male and female mice, range over groups): 50.9 to 861.5 nmol/g
Detection of DHM in brain samples ([1]; 45 min or longer post PO or IP administration of DHM 50 mg/kg): not detected
Brain Concentration 15 min post DHM ([1]; female mice, DHM 50 mg/kg IP): 864 ± 220 nmol/g
Brain Concentration 15 min post DHM ([1]; female mice, DHM 50 mg/kg PO): 50.9 ± 2.6 nmol/g
Brain Concentration 15 min post DHM ([1]; male mice, DHM 50 mg/kg IP): 672 ± 85 nmol/g
Brain Concentration 15 min post DHM ([1]; male mice, DHM 50 mg/kg PO): 423 ± 66 nmol/g
Compound: O=C1c2c(O)cc(O)cc2O[C@H](c2cc(O)c(O)c(O)c2)[C@H]1O [DHM, Dihydromyricetin]
oral absolute bioavailability [2]: 4.02%
cellular permeability [3]: 1.84 ×10⁻⁶ cm/s
stability in acidic environments ([4]; acidic environments, similar to upper GI tract): stable
stability in solutions with pH > 6 ([4]; pH > 6): unstable
